Measured values published in paper PMC11645656, “MRGPRX4 mediates phospho-drug associated pruritus in a humanized mouse model” (Science translational medicine, 2024).
Where “and” joins values, the source holds several entries; their conditions need not be identical. Identical values can stand only once.

Legend:
[1] = system: NP2-X4+ mice (MRGPRX4 in Mrgpra3+ NP2 sensory neurons); assay: Itch behavioral study (scratching bouts after subcutaneous nape injection) in NP2-X4+ mice; format: in vivo, mouse
MRGPRX4 R82A = molecular target: T1, MRGPRX4 R82A (Homo sapiens, UniProt Q96LA9, L83S/R82A); assay: Calcium mobilization assay (FLIPR), MRGPRX4 R82A mutant; format: cell-based
T1 construct: expressed in transfected cells; host or cells: HEK293T, transient
Excerpt: (§1) Fig. 3. […] (A) Cryo-EM density map of MRGPRX4-Gq in complex with fospropofol. (B) The density map of fospropofol and R82 of MRGPRX4. (C and D) Key molecular interactions between fospropofol and the hydrophilic (C) and hydrophobic (D) part of the agonist binding pocket of MRGPRX4. Amino acid residues interacting with fospropofol are shown as sticks. Hydrogen bond is shown as cyan dashed lines. […] Data are from at least three independent experiments, each performed in triplicate, and reported as the mean ± SEM. (E) and (F) were collected from the same sets of experiments.
(§2) To generate murine Mrgprs expressing cells, HEK293T cells (ATCC) were seeded on poly-D-lysine coated 96 well plate at 25,000 cells per well one day prior to transfection. HEK293T cells were transiently co-transfected with the mammalian expression plasmids carrying cDNA encoding the murine Mrgpr genes and plasmid inserted with cDNA encoding murine α-subunit of the heterotrimeric G15 protein (Gα15) in triplicates using Lipofectamine LTX reagents (Thermo Scientific). To generate WT, S83L, and alanine mutant MRGPRX4-expressing cells, HEK293T cells were seeded on poly-D-lysine coated 384 well plate at 12,000 cells per well one day prior to transfection. […]

MRGPRX4 R86A = molecular target: T2, MRGPRX4 R86A (Homo sapiens, UniProt Q96LA9, L83S/R86A); assay: Calcium mobilization assay (FLIPR), MRGPRX4 R86A mutant; format: cell-based
T2 construct: expressed in transfected cells; host or cells: HEK293T, transient
Excerpt: as §1, §2

MRGPRX4 W158A = molecular target: T3, MRGPRX4 W158A (Homo sapiens, UniProt Q96LA9, L83S/W158A); assay: Calcium mobilization assay (FLIPR), MRGPRX4 W158A mutant; format: cell-based; details: for calcium mobilization response (Fig. 3E and 3F dose-response): W158A
T3 construct: expressed in transfected cells; host or cells: HEK293T, transient
Excerpt: as §1
(§3) To generate murine Mrgprs expressing cells, HEK293T cells (ATCC) were seeded on poly-D-lysine coated 96 well plate at 25,000 cells per well one day prior to transfection. HEK293T cells were transiently co-transfected with the mammalian expression plasmids carrying cDNA encoding the murine Mrgpr genes and plasmid inserted with cDNA encoding murine α-subunit of the heterotrimeric G15 protein (Gα15) in triplicates using Lipofectamine LTX reagents (Thermo Scientific). To generate WT, S83L, and alanine mutant MRGPRX4-expressing cells, HEK293T cells were seeded on poly-D-lysine coated 384 well plate at 12,000 cells per well one day prior to transfection. Mammalian expression plasmids pLX304 (vector from Addgene) carrying different MRGPRX4 coding sequences were transiently transfected into HEK293T cells in triplicates with Lipofectamine LTX reagents (Thermo Scientific). Intracellular calcium mobilization assays were performed after one day of transfection. Murine Mrgprs tested include Mrgpra1, Mrgpra2a, Mrgpra2b, Mrgpra3, Mrgpra4, Mrgpra6, Mrgpra9, Mrgpra10, Mrgpra11, Mrgpra12, Mrgpra14, Mrgprb5, Mrgprb6, Mrgprb10, Mrgprb11, and Mrgprc11. WT and mutant MRGPRX4 constructs tested include WT, S83L, R82A, R86A, R95A, W158A, Y250A, and Y254A.
(§4) To generate MRGPRX4 mutant constructs, site-directed mutagenesis was performed using Q5® Site-Directed Mutagenesis Kit (New England Biolabs). The primers were designed by the NEBaseChanger tool, with forward primers spanning designated mutated sequence corresponding to the desired amino acid substitutions. The plasmids with WT MRGPRX4 sequence served as the templates for polymerase chain reaction (PCR) amplification with Q5 high-fidelity polymerase and respective primer pairs according to the manufacturer’s conditions. Then, the linear PCR products underwent phosphorylation, ligation, and simultaneous degradation of template DNA by incubating them with a KLD enzyme mix consisting of T4 polynucleotide kinase, T4 DNA ligase, and DpnI at room temperature for 5 min. Subsequently, the mutated circular plasmids were transformed into NEB 5-alpha competent E. coli by heat-shock method, and the successfully transformed bacteria were selected on LB plates with selection antibiotics. The next day, the transformant colonies were picked, expanded in LB broth containing selection antibiotics overnight. Plasmids were isolated using QIAprep Spin Miniprep Kit (Qiagen) and subjected to sequencing to confirm the mutation.

MRGPRX4 Y250A = molecular target: T4, MRGPRX4 Y250A (Homo sapiens, UniProt Q96LA9, L83S/Y250A); assay: Calcium mobilization assay (FLIPR), MRGPRX4 Y250A mutant; format: cell-based
T4 construct: expressed in transfected cells; host or cells: HEK293T, transient
Excerpt: as §1, §2

MRGPRX4 Y254A = molecular target: T5, MRGPRX4 Y254A (Homo sapiens, UniProt Q96LA9, L83S/Y254A); assay: Calcium mobilization assay (FLIPR), MRGPRX4 Y254A mutant; format: cell-based; details: for Calcium mobilization response, dose-response replicate data (Fig. 3E and 3F): Y254A
T5 construct: expressed in transfected cells; host or cells: HEK293T, transient
Excerpt: as §1, §3, §4

HTLA cells = assay: PRESTO-Tango β-arrestin recruitment assay, parental HTLA cells without MRGPRX4 (control, fig. S1); format: cell-based
Excerpt: Supplement NIHMS2038790-supplement-table.xlsx, sheet "fig. S1" | column: Concentration (M)

T3 sequence (Q96LA9 whole entry L83S/W158A): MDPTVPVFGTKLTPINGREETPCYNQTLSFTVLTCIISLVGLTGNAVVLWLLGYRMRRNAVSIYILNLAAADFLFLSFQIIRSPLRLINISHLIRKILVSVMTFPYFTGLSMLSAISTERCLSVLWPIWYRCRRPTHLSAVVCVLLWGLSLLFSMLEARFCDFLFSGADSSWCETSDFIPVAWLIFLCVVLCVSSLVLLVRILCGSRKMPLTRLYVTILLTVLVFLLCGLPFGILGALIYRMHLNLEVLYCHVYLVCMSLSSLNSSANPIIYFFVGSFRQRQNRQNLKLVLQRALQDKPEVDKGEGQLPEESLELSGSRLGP
T5 sequence (Q96LA9 whole entry L83S/Y254A): as the sequence (Q96LA9 whole entry L83S/W158A) above, with A158W, Y254A counted along it
T4 sequence (Q96LA9 whole entry L83S/Y250A): as the sequence (Q96LA9 whole entry L83S/W158A) above, with A158W, Y250A counted along it
T2 sequence (Q96LA9 whole entry L83S/R86A): as the sequence (Q96LA9 whole entry L83S/W158A) above, with R86A, A158W counted along it
T1 sequence (Q96LA9 whole entry R82A/L83S): as the sequence (Q96LA9 whole entry L83S/W158A) above, with R82A, A158W counted along it

Structure (SMILES): O=C1NC(c2ccccc2)(c2ccccc2)C(=O)N1COP(=O)(O)O [Fosphenytoin]
- Scratching / itch behavior, NP2-X4+ mice vs WT littermates ([1]; 50 μl 10 mM nape injection, 30 min): significantly increased scratching behavior
- Scratching bouts of individual animals ([1]; NP2-X4+, 30 min after injection of 50 μl 10 mM into the nape, each cell one mouse): 32 and 55 and 37 and 89 and 49 and 39 and 73 and 83 and 25 and 94
- Calcium mobilization response at alanine mutant R82A vs WT (MRGPRX4 R82A): either greatly attenuated or abolished
- Calcium mobilization response at alanine mutant R86A vs WT (MRGPRX4 R86A): either greatly attenuated or abolished
- Calcium mobilization response at alanine mutant W158A vs WT (MRGPRX4 W158A): disrupted calcium mobilization
- calcium mobilization response (Fig. 3E and 3F dose-response) (MRGPRX4 W158A; 0.000333 M): -15.9549
- calcium mobilization response (Fig. 3E and 3F dose-response) (MRGPRX4 W158A; 0.001 M): -17.9356
- calcium mobilization response (Fig. 3E and 3F dose-response) (MRGPRX4 W158A; […]): -11.6633
- Calcium mobilization response at alanine mutant Y250A vs WT (MRGPRX4 Y250A): disrupted calcium mobilization
- Calcium mobilization response at alanine mutant Y254A vs WT (MRGPRX4 Y254A): disrupted calcium mobilization
- Calcium mobilization response, dose-response replicate data (Fig. 3E and 3F) (MRGPRX4 Y254A; concentration 188 pM): 6.602 and -1.3205 and -9.574 and 20.2858 and 13.0936 and 9.774 and -0.7431 and 13.747
- Calcium mobilization response, dose-response replicate data (Fig. 3E and 3F) (MRGPRX4 Y254A; concentration 565 pM): 20.4677 and 20.7978 and 5.942 and 10.3273 and 0.3688 and 21.3924 and 9.2885 and 13.5241
- Calcium mobilization response, dose-response replicate data (Fig. 3E and 3F) (MRGPRX4 Y254A; concentration 1.69e-9 M): 15.8459 and 12.5447 and -5.6121 and 28.0313 and 20.8391 and 13.6468 and 20.2118 and 18.4284
- Calcium mobilization response, dose-response replicate data (Fig. 3E and 3F) (MRGPRX4 Y254A; concentration 5.08e-9 M): 23.7689 and 10.8941 and -0.3301 and 18.6261 and 10.3273 and 20.8391 and 13.5241 and 11.5177
- Calcium mobilization response, dose-response replicate data (Fig. 3E and 3F) (MRGPRX4 Y254A; concentration 1.52e-8 M): 15.8459 and 17.8267 and 10.564 and 26.3716 and 23.6054 and 16.9663 and 20.8805 and 19.7659
- Calcium mobilization response, dose-response replicate data (Fig. 3E and 3F) (MRGPRX4 Y254A; concentration 4.57e-8 M): 19.1472 and 14.8556 and 8.913 and 19.1793 and 12.5403 and 20.2858 and 17.7596
- Calcium mobilization response, dose-response replicate data (Fig. 3E and 3F) (MRGPRX4 Y254A; concentration 1.37e-7 M): 18.8171 and 31.3618 and 9.243 and 27.4781 and 26.9248 and 21.3924 and 19.3201
- Calcium mobilization response, dose-response replicate data (Fig. 3E and 3F) (MRGPRX4 Y254A; concentration 4.12e-7 M): 18.4869 and 19.4773 and 3.301 and 26.9248 and 12.5403 and 32.4573 and 12.4094
- Calcium mobilization response, dose-response replicate data (Fig. 3E and 3F) (MRGPRX4 Y254A; concentration 1.23e-6 M): 21.1279 and 18.1568 and 6.272 and 32.4573 and 21.9456 and 23.0521 and 14.8616 and 16.645
- Calcium mobilization response, dose-response replicate data (Fig. 3E and 3F) (MRGPRX4 Y254A; concentration 3.7e-6 M): 15.5158 and 10.2338 and 7.923 and 31.3509 and 13.0936 and 21.9456 and 13.9699 and 13.3011
- Calcium mobilization response, dose-response replicate data (Fig. 3E and 3F) (MRGPRX4 Y254A; concentration 1.11e-5 M): 7.923 and -1.651 and 1.651 and 24.1586 and 18.0728 and 21.9456 and 2.8237 and 17.9825
- Calcium mobilization response, dose-response replicate data (Fig. 3E and 3F) (MRGPRX4 Y254A; concentration 3.33e-5 M): 5.942 and 0.9904 and -9.904 and 16.4131 and 10.3273 and 31.3509 and 7.059 and 4.161
- Calcium mobilization response, dose-response replicate data (Fig. 3E and 3F) (MRGPRX4 Y254A; concentration 0.0001 M): 1.651 and -5.282 and 12.5403 and 18.0728 and 14.2001 and 2.601 and 7.951
- PRESTO-Tango response (fig. S1), single replicate (HTLA cells; concentration 3.91e-6 M): 0.004928 and 0.004598 and 0.01112 and 0.01116 and 0.003197 and 0.004271
- PRESTO-Tango response (fig. S1), single replicate (HTLA cells; concentration 7.81e-6 M): 0.007499 and 0.005683 and 0.007727 and 0.01002 and 0.00431 and 0.008159
- PRESTO-Tango response (fig. S1), single replicate (HTLA cells; concentration 1.56e-5 M): 0.004669 and 0.01023 and 0.009474 and 0.01705 and 0.007507 and 0.01409
- PRESTO-Tango response (fig. S1), single replicate (HTLA cells; concentration 3.13e-5 M): 0.006626 and 0.01061 and 0.0114 and 0.01987 and 0.004604 and 0.008542
- PRESTO-Tango response (fig. S1), single replicate (HTLA cells; concentration 6.25e-5 M): 0.01361 and 0.01504 and 0.01581 and 0.04311 and 0.006432 and 0.0129
- PRESTO-Tango response (fig. S1), single replicate (HTLA cells; concentration 0.00025 M): 0.01688 and 0.03926 and 0.02383 and 0.08171 and 0.008888 and 0.02076
- PRESTO-Tango response (fig. S1), single replicate (HTLA cells; concentration 0.0005 M): 0.0416 and 0.04542 and 0.03124 and 0.09673 and 0.01269 and 0.03191
- PRESTO-Tango response (fig. S1), single replicate (HTLA cells; concentration 0.001 M): 0.01837 and 0.05513 and 0.03077 and 0.1069 and 0.01168 and 0.03953
- PRESTO-Tango response (fig. S1), single replicate (HTLA cells; concentration 0.002 M): 0.01971 and 0.05409 and 0.03051 and 0.1054 and 0.01079 and 0.03852
- PRESTO-Tango response (fig. S1), single replicate (HTLA cells; concentration 0.004 M): 0.01886 and 0.05018 and 0.02929 and 0.08185 and 0.01164 and 0.032
